The values that follow come from patent US20250235543A1, “MODIFIED PROTEINS AND PROTEIN DEGRADERS” (Cullgen (Shanghai), Inc., priority 2021, published 2025).

Assay [1] relates to cyclin D1. Description: Cyclin D1 percentage degradation in Calu-1 cells (immunoblotting). In kind it is cell-based. Conditions: 10 μM, 16 hours. The gist of the method: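 Cyclin D1 degradation was assessed by western blot. Clarified lysates, obtained by RIPA lysis with inhibitors and centrifugation at 13,000 rpm, were normalized by BCA protein assay and separated by SDS-PAGE. Bands were detected with Western ECL Substrate on a Bio-Rad ChemiDoc MP Imaging system and quantified in Image Lab software to derive percentage degradation.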
For orientation: A western blot detects proteins with antibodies after separation by electrophoresis.

Assay [2] has as its target T1, CDK4 (Homo sapiens, UniProt P11802).
T1 construct: endogenous in cells; host or cells: Calu-1
Description: CDK4 percentage degradation in Calu-1 cells (immunoblotting). In kind it is cell-based. Particulars: Calu-1 cells, 10 μM, 16 hours; read-out: CDK4 Degradation (10 μM). The gist of the method: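 CDK4 degradation was measured by immunoblotting. Cells were washed in cold PBS and lysed in RIPA buffer with inhibitors for 30 min at 4° C., then spun at 13,000 rpm to clear. After BCA protein determination, lysates were heated at 99° C. for 5 min in Laemmli buffer, resolved on SDS-PAGE, imaged on a ChemiDoc MP with ECL substrate, and band intensities quantified.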

T1 sequence (P11802 2-303 limits assumed): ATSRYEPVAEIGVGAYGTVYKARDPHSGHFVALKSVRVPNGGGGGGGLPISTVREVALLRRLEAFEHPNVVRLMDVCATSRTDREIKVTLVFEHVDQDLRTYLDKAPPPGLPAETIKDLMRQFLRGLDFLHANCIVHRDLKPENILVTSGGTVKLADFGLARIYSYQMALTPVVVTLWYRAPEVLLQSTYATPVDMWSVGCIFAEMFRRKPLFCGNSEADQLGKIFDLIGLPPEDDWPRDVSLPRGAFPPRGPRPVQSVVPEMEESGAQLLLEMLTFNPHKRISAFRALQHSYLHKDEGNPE
T1 sequence (P24385 whole entry partner): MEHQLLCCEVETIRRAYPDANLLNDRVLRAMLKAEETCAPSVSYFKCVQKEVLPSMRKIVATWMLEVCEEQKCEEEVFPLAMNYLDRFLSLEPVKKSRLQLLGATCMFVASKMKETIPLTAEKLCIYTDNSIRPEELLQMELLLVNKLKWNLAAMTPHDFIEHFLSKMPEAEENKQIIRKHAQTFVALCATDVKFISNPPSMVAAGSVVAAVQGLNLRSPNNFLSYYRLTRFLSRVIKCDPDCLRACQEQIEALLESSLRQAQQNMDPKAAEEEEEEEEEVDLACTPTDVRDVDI
T1 sequence (Q16531 2-1140 limits assumed, further chain): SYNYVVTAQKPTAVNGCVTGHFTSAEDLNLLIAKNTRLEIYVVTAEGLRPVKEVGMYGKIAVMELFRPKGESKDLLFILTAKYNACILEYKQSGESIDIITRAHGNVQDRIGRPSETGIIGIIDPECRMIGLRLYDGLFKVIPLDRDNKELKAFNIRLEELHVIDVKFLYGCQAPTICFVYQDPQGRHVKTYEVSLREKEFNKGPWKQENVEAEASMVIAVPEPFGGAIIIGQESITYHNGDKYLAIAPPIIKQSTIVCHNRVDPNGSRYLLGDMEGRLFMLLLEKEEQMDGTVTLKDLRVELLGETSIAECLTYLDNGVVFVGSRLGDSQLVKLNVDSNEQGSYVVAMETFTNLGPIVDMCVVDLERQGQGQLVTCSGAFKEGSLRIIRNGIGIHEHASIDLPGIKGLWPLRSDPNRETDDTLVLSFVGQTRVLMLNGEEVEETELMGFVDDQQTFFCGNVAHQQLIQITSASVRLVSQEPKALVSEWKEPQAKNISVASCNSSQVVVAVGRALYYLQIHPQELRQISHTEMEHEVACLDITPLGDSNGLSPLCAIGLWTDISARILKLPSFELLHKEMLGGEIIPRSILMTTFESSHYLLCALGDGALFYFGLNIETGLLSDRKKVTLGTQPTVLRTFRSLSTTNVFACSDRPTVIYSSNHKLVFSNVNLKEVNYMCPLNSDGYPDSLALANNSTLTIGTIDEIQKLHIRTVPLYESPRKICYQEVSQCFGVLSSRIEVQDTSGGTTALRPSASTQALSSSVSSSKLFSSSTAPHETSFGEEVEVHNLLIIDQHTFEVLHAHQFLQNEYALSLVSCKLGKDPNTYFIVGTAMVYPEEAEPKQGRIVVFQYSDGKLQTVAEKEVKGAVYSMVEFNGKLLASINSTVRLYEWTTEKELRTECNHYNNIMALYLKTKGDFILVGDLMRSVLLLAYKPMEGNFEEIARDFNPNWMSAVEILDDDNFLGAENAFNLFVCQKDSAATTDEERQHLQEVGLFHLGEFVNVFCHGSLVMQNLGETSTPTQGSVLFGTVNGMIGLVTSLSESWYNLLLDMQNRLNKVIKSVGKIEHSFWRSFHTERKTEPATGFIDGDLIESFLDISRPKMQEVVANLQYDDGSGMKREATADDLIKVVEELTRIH

As for `Cc1nc(NC(=O)c2ccccc2NC(=O)CCCCCCNC(=O)CN2CCN(c3ccc(Nc4ncc5cc(C(=O)N(C)C)n(C6CCCC6)c5n4)nc3)CC2)sc1C` [CPD-291, 7-Cyclopentyl-2-((5-(4-(2-((7-((2-((4,5-dimethylthiazol-2-yl)carbamoyl)phenyl)amino)-7-oxoheptyl)amino)-2-oxoethyl)piperazin-1-yl)pyridin-2-yl)amino)-N,N-dimethyl-7H-pyrrolo[2,3-d]pyrimidine-6-carboxamide], the “CyclinD1 Degradation (10 μM)” value in assay [1] is “B (protein percentage degradation < 80%, and >= 50%)”. Further, the inhibition at 10 µM in assay [2] lay in the range of 30 to 50%.
Regarding `Cc1nc(NC(=O)c2ccccc2NC(=O)CCCCCCCNC(=O)CN2CCN(c3ccc(Nc4ncc5cc(C(=O)N(C)C)n(C6CCCC6)c5n4)nc3)CC2)sc1C` [CPD-292, 7-Cyclopentyl-2-((5-(4-(2-((8-((2-((4,5-dimethylthiazol-2-yl)carbamoyl)phenyl)amino)-8-oxooctyl)amino)-2-oxoethyl)piperazin-1-yl)pyridin-2-yl)amino)-N,N-dimethyl-7H-pyrrolo[2,3-d]pyrimidine-6-carboxamide], the “CyclinD1 Degradation (10 μM)” value in assay [1] is “B (protein percentage degradation < 80%, and >= 50%)”. Further, in assay [2], the inhibition at 10 µM is less than 30%.
`Cc1nc(NC(=O)c2ccccc2NC(=O)CCCCCCCCNC(=O)CN2CCN(c3ccc(Nc4ncc5cc(C(=O)N(C)C)n(C6CCCC6)c5n4)nc3)CC2)sc1C` [CPD-293, 7-Cyclopentyl-2-((5-(4-(2-((9-((2-((4,5-dimethylthiazol-2-yl)carbamoyl)phenyl)amino)-9-oxononyl)amino)-2-oxoethyl)piperazin-1-yl)pyridin-2-yl)amino)-N,N-dimethyl-7H-pyrrolo[2,3-d]pyrimidine-6-carboxamide]: the “CyclinD1 Degradation (10 μM)” value in assay [1] is on record as “A (protein percentage degradation >= 80%)”. Further, in assay [2], the inhibition at 10 µM is 50 to 80%.
In the case of `Cc1nc(NC(=O)c2ccccc2NC(=O)CCOCCNC(=O)CN2CCN(c3ccc(Nc4ncc5cc(C(=O)N(C)C)n(C6CCCC6)c5n4)nc3)CC2)sc1C` [CPD-294, 7-Cyclopentyl-2-((5-(4-(2-((2-(3-((2-((4,5-dimethylthiazol-2-yl)carbamoyl)phenyl)amino)-3-oxopropoxy)ethyl)amino)-2-oxoethyl)piperazin-1-yl)pyridin-2-yl)amino)-N,N-dimethyl-7H-pyrrolo[2,3-d]pyrimidine-6-carboxamide], in assay [1], the “CyclinD1 Degradation (10 μM)” value was “A (protein percentage degradation >= 80%)”. In assay [2], the inhibition at 10 µM fell in the range of 50 to 80%.
For `Cc1nc(NC(=O)c2ccccc2NC(=O)CCOCCOCCNC(=O)CN2CCN(c3ccc(Nc4ncc5cc(C(=O)N(C)C)n(C6CCCC6)c5n4)nc3)CC2)sc1C` [CPD-295, 7-Cyclopentyl-2-((5-(4-(2-((2-(2-(3-((2-((4,5-dimethylthiazol-2-yl)carbamoyl)phenyl)amino)-3-oxopropoxy)ethoxy)ethyl)amino)-2-oxoethyl)piperazin-1-yl)pyridin-2-yl)amino)-N,N-dimethyl-7H-pyrrolo[2,3-d]pyrimidine-6-carboxamide], the “CyclinD1 Degradation (10 μM)” value in assay [1] is on record as “A (protein percentage degradation >= 80%)”. For the same molecule, the inhibition at 10 µM in assay [2] fell in the range of 50 to 80%.
As for `Cc1nc(NC(=O)c2ccccc2NC(=O)CCOCCOCCOCCNC(=O)CN2CCN(c3ccc(Nc4ncc5cc(C(=O)N(C)C)n(C6CCCC6)c5n4)nc3)CC2)sc1C` [CPD-296, 7-Cyclopentyl-2-((5-(4-(15-((2-((4,5-dimethylthiazol-2-yl)carbamoyl)phenyl)amino)-2,15-dioxo-6,9,12-trioxa-3-azapentadecyl)piperazin-1-yl)pyridin-2-yl)amino)-N,N-dimethyl-7H-pyrrolo[2,3-d]pyrimidine-6-carboxamide], in assay [1], the “CyclinD1 Degradation (10 μM)” value was “A (protein percentage degradation >= 80%)”. Also, the inhibition at 10 µM in assay [2] was in the range of 50 to 80%.
For the molecule `Cc1nc(NC(=O)c2ccccc2NC(=O)CCOCCOCCOCCOCCNC(=O)CN2CCN(c3ccc(Nc4ncc5cc(C(=O)N(C)C)n(C6CCCC6)c5n4)nc3)CC2)sc1C` [CPD-297, 7-Cyclopentyl-2-((5-(4-(18-((2-((4,5-dimethylthiazol-2-yl)carbamoyl)phenyl)amino)-2,18-dioxo-6,9,12,15-tetraoxa-3-azaoctadecyl)piperazin-1-yl)pyridin-2-yl)amino)-N,N-dimethyl-7H-pyrrolo[2,3-d]pyrimidine-6-carboxamide], the “CyclinD1 Degradation (10 μM)” value in assay [1] is given as “A (protein percentage degradation >= 80%)”. Moreover, the inhibition at 10 µM in assay [2] is 50 to 80%.
`Cc1nc(NC(=O)c2ccccc2NC(=O)CCOCCOCCOCCOCCOCCNC(=O)CN2CCN(c3ccc(Nc4ncc5cc(C(=O)N(C)C)n(C6CCCC6)c5n4)nc3)CC2)sc1C` [CPD-298, 7-Cyclopentyl-2-((5-(4-(21-((2-((4,5-dimethylthiazol-2-yl)carbamoyl)phenyl)amino)-2,21-dioxo-6,9,12,15,18-pentaoxa-3-azahenicosyl)piperazin-1-yl)pyridin-2-yl)amino)-N,N-dimethyl-7H-pyrrolo[2,3-d]pyrimidine-6-carboxamide]: the “CyclinD1 Degradation (10 μM)” value in assay [1] is on record as “A (protein percentage degradation >= 80%)”. For the same molecule, the inhibition at 10 µM in assay [2] was in the range of 50 to 80%.
As for `Cc1nc(NC(=O)c2ccccc2NC(=O)CCOCCOCCOCCOCCOCCOCCNC(=O)CN2CCN(c3ccc(Nc4ncc5cc(C(=O)N(C)C)n(C6CCCC6)c5n4)nc3)CC2)sc1C` [CPD-299, 7-Cyclopentyl-2-((5-(4-(24-((2-((4,5-dimethylthiazol-2-yl)carbamoyl)phenyl)amino)-2,24-dioxo-6,9,12,15,18,21-hexaoxa-3-azatetracosyl)piperazin-1-yl)pyridin-2-yl)amino)-N,N-dimethyl-7H-pyrrolo[2,3-d]pyrimidine-6-carboxamide], the “CyclinD1 Degradation (10 μM)” value in assay [1] is “B (protein percentage degradation < 80%, and >= 50%)”. In assay [2], the inhibition at 10 µM was in the range of 30 to 50%.
Take `Cc1nc(NC(=O)c2ccccc2NC(=O)CNC(=O)CN2CCN(c3ccc(Nc4ncc(F)c(-c5cc(F)c6nc(C)n(C(C)C)c6c5)n4)nc3)CC2)sc1C` [CPD-300, N-(4,5-Dimethylthiazol-2-yl)-2-(2-(2-(4-(6-((5-fluoro-4-(4-fluoro-1-isopropyl-2-methyl-1H-benzo[d]imidazol-6-yl)pyrimidin-2-yl)amino)pyridin-3-yl)piperazin-1-yl)acetamido)acetamido)benzamide]: the “CyclinD1 Degradation (10 μM)” value in assay [1] was “D (protein percentage degradation < 30%)”. Further, in assay [2], the inhibition at 10 µM is less than 30%.
In the same order, the values of `Cc1nc(NC(=O)c2ccccc2NC(=O)CCNC(=O)CN2CCN(c3ccc(Nc4ncc(F)c(-c5cc(F)c6nc(C)n(C(C)C)c6c5)n4)nc3)CC2)sc1C` [CPD-301, N-(4,5-Dimethylthiazol-2-yl)-2-(3-(2-(4-(6-((5-fluoro-4-(4-fluoro-1-isopropyl-2-methyl-1H-benzo[d]imidazol-6-yl)pyrimidin-2-yl)amino)pyridin-3-yl)piperazin-1-yl)acetamido)propanamido)benzamide] are “D (protein percentage degradation < 30%)” and less than 30%.
Turning to `Cc1nc(NC(=O)c2ccccc2NC(=O)CCCNC(=O)CN2CCN(c3ccc(Nc4ncc(F)c(-c5cc(F)c6nc(C)n(C(C)C)c6c5)n4)nc3)CC2)sc1C` [CPD-302, N-(4,5-Dimethylthiazol-2-yl)-2-(4-(2-(4-(6-((5-fluoro-4-(4-fluoro-1-isopropyl-2-methyl-1H-benzo[d]imidazol-6-yl)pyrimidin-2-yl)amino)pyridin-3-yl)piperazin-1-yl)acetamido)butanamido)benzamide], the “CyclinD1 Degradation (10 μM)” value in assay [1] is “D (protein percentage degradation < 30%)”. In assay [2], the inhibition at 10 µM is less than 30%.
On to `Cc1nc(NC(=O)c2ccccc2NC(=O)CCCCNC(=O)CN2CCN(c3ccc(Nc4ncc(F)c(-c5cc(F)c6nc(C)n(C(C)C)c6c5)n4)nc3)CC2)sc1C` [CPD-303, N-(4,5-Dimethylthiazol-2-yl)-2-(5-(2-(4-(6-((5-fluoro-4-(4-fluoro-1-isopropyl-2-methyl-1H-benzo[d]imidazol-6-yl)pyrimidin-2-yl)amino)pyridin-3-yl)piperazin-1-yl)acetamido)pentanamido)benzamide], for which, in assay [1], the “CyclinD1 Degradation (10 μM)” value is “D (protein percentage degradation < 30%)”. Also, the inhibition at 10 µM in assay [2] is less than 30%.
For `Cc1nc(NC(=O)c2ccccc2NC(=O)CCCCCNC(=O)CN2CCN(c3ccc(Nc4ncc(F)c(-c5cc(F)c6nc(C)n(C(C)C)c6c5)n4)nc3)CC2)sc1C` [CPD-304, N-(4,5-Dimethylthiazol-2-yl)-2-(6-(2-(4-(6-((5-fluoro-4-(4-fluoro-1-isopropyl-2-methyl-1H-benzo[d]imidazol-6-yl)pyrimidin-2-yl)amino)pyridin-3-yl)piperazin-1-yl)acetamido)hexanamido)benzamide], in assay [1], the “CyclinD1 Degradation (10 μM)” value is recorded as “D (protein percentage degradation < 30%)”. Also, the inhibition at 10 µM in assay [2] is less than 30%.
In the case of `Cc1nc(NC(=O)c2ccccc2NC(=O)CCCCCCNC(=O)CN2CCN(c3ccc(Nc4ncc(F)c(-c5cc(F)c6nc(C)n(C(C)C)c6c5)n4)nc3)CC2)sc1C` [CPD-305, N-(4,5-Dimethylthiazol-2-yl)-2-(7-(2-(4-(6-((5-fluoro-4-(4-fluoro-1-isopropyl-2-methyl-1H-benzo[d]imidazol-6-yl)pyrimidin-2-yl)amino)pyridin-3-yl)piperazin-1-yl)acetamido)heptanamido)benzamide], the “CyclinD1 Degradation (10 μM)” value in assay [1] is “D (protein percentage degradation < 30%)”. For the same molecule, the inhibition at 10 µM in assay [2] was less than 30%.
